According to patent US20250346629A1, “USE OF D-ENANTIOMERIC PEPTIDE LIGANDS OF MONOMERIC ALPHA-SYNUCLEIN FOR THE THERAPY OF VARIOUS SYNUCLEINOPATHIES” (PRIAVOID GMBH, priority 2021, published 2025):
Where two headings read alike, the source gives them in different places. Square brackets hold non-standard residues; d marks the D form. Peptide text beside a SMILES is read from it.

Experiments:
[1] = Solubility of D-peptides in buffer (UV-vis of supernatant after centrifugation); type: physicochemical; settings: different buffers including PBS, aqueous buffer; different buffer conditions including PBS pH 7.4; 1 h at 37° C., 20 800×g centrifugation; read-out: starting concentration up to which the compound remained completely in the supernatant
Source text: D-enantiomeric peptides with C-terminal amidation were acquired from CASLO (CASLO, DK) as a lyophilized chloride salt powder having a purity of >95%.

[2] = biological target: α-syn (Homo sapiens, UniProt P37840, A140C); assay: MST measurement of SVD-1 and α-syn (FIG. 2, α-syn 140C-C2-Alexa 647); type: binding
Source text: 70% LED power; 60% MST power.

[3] = system: PC12 cells; type: cell-based; settings: rat, 24 h, 15 μM
Description: PC12 cells (Leibniz-Institut DSMZ, GE) were cultured at 37° C. on a collagen A-coated (Biochrom GmbH, GE) tissue culture flask in RPMI 1640 medium, supplemented with 5% fetal calf serum and 10% horse serum in an atmosphere humidified to 95% with 5% CO2. 10 000 cells per well in a volume of 100 μl were seeded into collagen A-coated 96-well plates (Thermo Fisher Scientific, USA and incubated for 24 hours at 37° C. and 300 rpm in a thermocycler.
Furthermore, 15 μM of the peptides alone, cell media, buffer without peptide and 0.1% Triton X-100 (cytotoxic compound) were used as controls. After further incubation in a 95% humidified atmosphere with 5% CO2 at 37° C. for 24 hours, the viability of the cells was measured using the Cell Proliferation Kit I (MTT) (Roche Applied Science, CH), following the manufacturer's protocol.
The MTT-formazan product was quantified by measuring the absorbance at 570 nm, corrected by subtracting the absorbance at 660 nm, in a FluoroStar Optima plate reader (BMG labtech, GE). All results were normalized to untreated cells grown only in medium. The significance test was carried out by one-way ANOVA with Bonferroni post-hoc analysis (OriginPro 2020, OriginLab, USA; n=4).
The significance test was carried out by one-way ANOVA with Bonferroni post-hoc analysis: […], ***p≤0.01. The means are stated±SD (n=4).

[4] = biological target: α-syn oligomers (Homo sapiens, UniProt P37840); assay: α-syn oligomer elimination, HPLC-SEC of supernatant (FIG. 4); type: biochemical; settings: SVD-1 150 and 250 μM; 5 μM monomer-equivalent oligomers, 3 days, 900 rpm, 37° C.
Source text: The samples were centrifuged at 21 000×g and the supernatant was loaded onto an HPLC-SEC column.

[5] = biological target: α-syn (Homo sapiens, UniProt P37840); assay: Gradient centrifugation of α-syn aggregation samples (FIG. 6); type: biochemical; settings: equimolar SVD-1, 9 days, 37° C., no shaking, Iodixanol gradient
Description: No shaking, no glass beads, at 37° C. After 9 days, the triplet samples were combined together and 100 μl was added to an Iodixanol gradient (5-50% (w/v)). 15 fractions, each of 140 μl were analyzed by means of RP-HPLC using a Zorbax 300 SB-C8 column and integrated to α-syn peaks.

[6] = biological target: WT alpha-synuclein (Homo sapiens, UniProt P37840); assay: Multicycle SPR experiment of WT alpha-synuclein and immobilized SVD-1 (FIG. 3); type: binding
Description: WT α-syn was injected in a concentration range of […] in PBS, PH 7.4. Regeneration: 2 M Gua-HCl and 0.1% SDS.

[7] = biological target: full-length α-syn (Homo sapiens, UniProt P37840); assay: MST measurement of fluorophore-labeled peptides with full-length α-syn (FIG. 10); type: binding; settings: 100 nM labeled peptide, PBS pH 7.4, 25° C., individual measurement
Description: The peptides were fluorescence labeled by means of cysteine-maleimide coupling. SVD-1_Cys and SVD 1a_Cys were fluorescence labeled at the C-terminus with a fivefold or tenfold molar excess of TCEP and CF633-PEG2-maleimide (Sigma-Aldrich, USA). The labeling reaction was carried out in 25 mM NaPi, PH 7.0, for 2 h at RT. The labeled peptides were purified at 25° C. using an Agilent 1260 Infinity II System and a C-18 RP-HPLC column (Zorbax 300 SB-C8/SB-C 18, Agilent, USA). The mobile phases consisted of A: water+0.1% TFA, and B: acetonitrile+0.1% TFA. The fluorescence-labeled peptides and proteins were eluted with a gradient of 5-40% (v/v) B in 30 min. The fluorescence-labeled products were fractionated using the absorption wavelength of the fluorophore (CF633: 633 nm) and the pooled samples were subsequently lyophilized and redissolved in the appropriate buffer. The protein concentrations were determined by means of UV-vis and the fluorescence-labeled samples were stored at −20° C.
The experiments for microscale thermophoresis (MST) were carried out using a Monolith NT.115 device (NanoTemper Technologies GmbH, GE). Fluorescence-labeled peptides were diluted in PBS, PH 7.4 to a final concentration of 100 nM. […] The data was evaluated with the thermophoresis effect, using the NT analysis software (version 1.5.41) supplied by the manufacturer. […]

[8] = biological target: WT α-syn (Homo sapiens, UniProt P37840); assay: Single cycle SPR experiment of WT α-syn on CM5-immobilized peptides (FIG. 8); settings: 1:1 binding model fit, CM5 chip, PBS pH 7.4, 0.005% Tween-20
Description: Each peptide was immobilized on a CM5 sensor chip surface. WT α-syn was injected in a concentration range of 30-500 nM in PBS, PH 7.4, 0.005% (v/v) Tween-20. Regeneration was carried out after every cycle with 2 M Gua-HCl for 2×30 sec. The KDs were determined with a 1:1 binding model fit, as follows: SVD-1a: 15.7 nM; SVD-6a: 14.0 nM; SVD-10a: 12.3 nM.

[9] = system: αSynA53T-YFP cells (HEK293T); assay: Cell assay for seeded α-synuclein aggregation (FIG. 19); type: cell-based, human
Description: A construct encoding full-length A53T-mutated human α-syn and fused with YFP at the C-terminus was synthesized and introduced into the pMK-RQ expression vector (GeneArt; Thermo Fisher Scientific, USA). The α-synA53T-YFP construct was sub-cloned using the restriction sites NheI (5′) and NotI (3′) in the vector pIRESpuro3 (Clontech; Takara Bio, JPN). HEK293T cells (American Type Culture Collection) were cultured in high-glucose Dulbecco's Modified Eagle's Medium (DMEM; Sigma-Aldrich, USA) which had 10% fetal calf serum (Sigma-Aldrich, USA), 50 units/ml penicillin, and also 50 μg/ml streptomycin (Sigma-Aldrich, USA) added thereto. The cells were cultured at 37° C. in a humidified atmosphere with 5% CO2.
The cells plated in DMEM were transfected with Lipofectamine 2000 (Invitrogen; Thermo Fisher Scientific, USA). Stable cells were selected in DMEM with 1 μg/ml puromycin (EMD Millipore, USA). Monoclonal cell lines were produced by means of fluorescence-activated cell sorting of a polyclonal cell population in 96-well plates using a MoFlo XDP cell sorter (Beckman Coulter, USA). […]
The plates were then incubated at 37° C. in a humidified atmosphere with 5% CO2. On the third day, the cells were imaged in an IN Cell Analyzer 6500HS system (Cytiva, USA) using the blue and green fluorescence channels, and analyzed by the IN Carta Image Analysis software (Cytiva, USA) which had been used to establish an algorithm for identifying intracellular aggregates in living cells. Four wells were used for each condition and 16 images were recorded per well and analyzed by a fully-automated algorithm in order to prevent distortions. […]
In order to validate the inhibitory effect of SVD-1a in cells, use was made of the α-synA53T-YFP cell system which stably expresses human α-syn with the familial A53T mutation, fused with YFP, in HEK293T cells, and the fluorescence-based detection of aggregates makes it possible to clearly show the strongly fluorescent spots within the cells against the background, intracellularly after seeding with PFF oligomers. […] Panels C, F and I show αSynA53T-YFP fluorescence. […]

In the case of `CC[C@@H](C)[C@@H](NC(=O)[C@@H](Cc1c[nH]cn1)NC(=O)[C@@H](CCC(=O)O)NC(=O)[C@@H](CCC(N)=O)NC(=O)[C@@H](Cc1c[nH]c2ccccc12)NC(=O)[C@@H](Cc1ccc(O)cc1)NC(=O)[C@H](NC(=O)[C@@H](CCC(=O)O)NC(=O)[C@@H](Cc1c[nH]cn1)NC(=O)[C@H](NC(=O)[C@H]1CCCN1C(=O)[C@@H](CCSC)NC(=O)[C@H](N)CCCCN)[C@H](C)O)[C@H](C)O)C(=O)N[C@H](Cc1c[nH]c2ccccc12)C(=O)N[C@H](Cc1c[nH]cn1)C(=O)N[C@H](C)C(N)=O` [SVD-1, kmpthetywqehiwha] (H-[dK][dM][dP][dT][dH][dE][dT][dY][dW][dQ][dE][dH][dI][dW][dH][dA]-NH2), the solubility at 1 h [1] is reported as ≥ 1000 µM, the Kd [2] is reported as 55 nM and the “cells saved (cell viability)” value [3] is reported as 89%. For the same compound, the “α-syn oligomer in the supernatant” value [4] was “not possible to detect any α-syn oligomer in the supernatant”, the “fibril formation (fractions F6-F12)” value [5] was “No fibril formation (F6-F12) was observed” and the Kd ([6]; heterogeneous ligand adjustment, PBS pH 7.4, read-out: KD1) was 12.5 nM. The Kd ([6]; read-out: KD2, heterogeneous ligand adjustment, PBS pH 7.4) was 2000 nM and the Kd [7] was 170 nM.

In the case of `CC(C)C[C@@H](NC(=O)[C@H]1CCCN1C(=O)[C@@H](CCC(N)=O)NC(=O)[C@@H](CCCNC(=N)N)NC(=O)[C@@H](Cc1c[nH]c2ccccc12)NC(=O)[C@@H](CC(=O)O)NC(=O)[C@H](N)Cc1ccc(O)cc1)C(=O)N[C@H](CO)C(=O)N[C@H](C)C(=O)N[C@H](CO)C(=O)N[C@H](CCCNC(=N)N)C(=O)N[C@H](Cc1ccccc1)C(=O)N[C@H](CC(C)C)C(=O)N[C@H](C)C(=O)N1CCC[C@@H]1C(=O)N[C@H](Cc1c[nH]c2ccccc12)C(=O)N[C@H](CCCNC(=N)N)C(=O)N[C@H](CCCNC(=N)N)C(=O)N[C@H](CCCNC(=N)N)C(=O)N[C@H](CCCNC(=N)N)C(=O)N[C@H](CCCNC(=N)N)C(N)=O` [SVD-6a, ydwrqplsasrflapwrrrrr] (H-[dY][dD][dW][dR][dQ][dP][dL][dS][dA][dS][dR][dF][dL][dA][dP][dW][dR][dR][dR][dR][dR]-NH2), the Kd [8] is reported as 14 nM.

In the case of `C[C@H](O)[C@@H](NC(=O)[C@@H](CC(N)=O)NC(=O)[C@@H](Cc1c[nH]c2ccccc12)NC(=O)[C@@H](Cc1ccc(O)cc1)NC(=O)[C@H]1CCCN1C(=O)[C@H]1CCCN1C(=O)[C@@H](CC(N)=O)NC(=O)[C@@H](Cc1c[nH]c2ccccc12)NC(=O)[C@@H](CCC(N)=O)NC(=O)[C@@H](CCC(N)=O)NC(=O)[C@@H](Cc1c[nH]c2ccccc12)NC(=O)[C@@H](Cc1c[nH]cn1)NC(=O)[C@@H](CO)NC(=O)[C@H](N)CO)C(=O)N[C@H](CC(=O)O)C(=O)N[C@H](CO)C(=O)N[C@H](CCCNC(=N)N)C(=O)N[C@H](CCCNC(=N)N)C(=O)N[C@H](CCCNC(=N)N)C(=O)N[C@H](CCCNC(=N)N)C(=O)N[C@H](CCCNC(=N)N)C(N)=O` [SVD-10a, sshwqqwnppywntdsrrrrr] (H-[dS][dS][dH][dW][dQ][dQ][dW][dN][dP][dP][dY][dW][dN][dT][dD][dS][dR][dR][dR][dR][dR]-NH2), the Kd [8] is reported as 12.3 nM.

For kgvgnleyqlwalegk-NH2, the cells with aggregation ([9]; 25 μM peptide, seeded with soluble α-syn-PFF oligomers, third day) was 85% and the “inhibition of α-syn aggregation in cells” value ([9]; seeded with 30 nM PFF oligomers, day 3, two-stage transfection) was “not”.
